Test results reported in patent US20110212968A1, “PHENETHYLAMIDE DERIVATIVES AND THEIR HETEROCYCLIC ANALOGUES” (priority 2008, published 2011).
Values belong to the compound of their own block, whether it stands above or below them.

Columns and labels:
human orexin-1 receptor = target: T1, human orexin-1 receptor (Homo sapiens, UniProt O43613); assay: Intracellular calcium measurement (FLIPR Tetra), orexin receptor antagonistic activity, OX1; type: cell-based; conditions: CHO cells expressing human orexin-1 receptor, 3 nM orexin-A, conditions B
T1 construct: expressed in transfected cells; host or cells: CHO (Chinese hamster ovary) cells, kept under G418 selection
T1 sequence (O43613 1-425): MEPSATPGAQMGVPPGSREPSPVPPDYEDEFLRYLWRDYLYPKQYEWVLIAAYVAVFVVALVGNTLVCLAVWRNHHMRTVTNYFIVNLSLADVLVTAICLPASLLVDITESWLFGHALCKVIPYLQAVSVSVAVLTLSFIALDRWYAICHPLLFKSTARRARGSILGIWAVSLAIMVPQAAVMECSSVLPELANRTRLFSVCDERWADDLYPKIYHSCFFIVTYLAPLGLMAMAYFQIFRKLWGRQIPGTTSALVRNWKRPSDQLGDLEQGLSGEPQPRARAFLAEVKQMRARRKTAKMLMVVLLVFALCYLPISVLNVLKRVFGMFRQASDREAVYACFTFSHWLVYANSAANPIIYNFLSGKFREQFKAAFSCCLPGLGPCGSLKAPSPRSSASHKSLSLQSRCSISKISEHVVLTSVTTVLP
Method: (§1) The orexin receptor antagonistic activity of the compounds of formula (I) is determined in accordance with one of the following experimental methods.
(§2) Chinese hamster ovary (CHO) cells expressing the human orexin-1 receptor and the human orexin-2 receptor, respectively, are grown in culture medium (Ham F-12 with L-Glutamine) containing 300 μg/ml G418, 100 U/ml penicillin, 100 μg/ml streptomycin and 10% heat inactivated fetal calf serum (FCS). The cells are seeded at 20,000 cells/well into 384-well black clear bottom sterile plates (Greiner). The seeded plates are incubated overnight at 37° C. in 5% CO2.
(§3) Human orexin-A as an agonist is prepared as 1 mM stock solution in MeOH:water (1:1), diluted in HBSS containing 0.1% bovine serum albumin (BSA), NaHCO3: 0.375 g/l and 20 mM HEPES for use in the assay at a final concentration of 3 nM. Antagonists are prepared as 10 mM stock solution in DMSO, then diluted in 384-well plates, first in DMSO, then in HBSS containing 0.1% bovine serum albumin (BSA), NaHCO3: 0.375 g/l and 20 mM HEPES.
(§4) On the day of the assay, 50 μl of staining buffer (HBSS containing 1% FCS, 20 mM HEPES, NaHCO3: 0.375 g/l, 5 mM probenecid (Sigma) and 3 μM of the fluorescent calcium indicator fluo-4 AM (1 mM stock solution in DMSO, containing 10% pluronic) is added to each well.
(§5) The 384-well cell-plates are incubated for 50 min at 37° C. in 5% CO2 followed by equilibration at RT for 30-120 min before measurement.
(§6) Within the Fluorescent Imaging Plate Reader (FLIPR Tetra, Molecular Devices), antagonists are added to the plate in a volume of 10 μl/well, incubated for 10 min and finally 10 μl/well of agonist is added. Fluorescence is measured for each well at 1 second intervals, and the height of each fluorescence peak is compared to the height of the fluorescence peak induced by 3 nM orexin-A with vehicle in place of antagonist. For each antagonist, the IC50 value (the concentration of compound needed to inhibit 50% of the agonistic response) is determined and may be normalized using the obtained IC50 value of a on-plate reference compound (normalized values in Table 1 are indicated by an asterisk *). With the FLIPR Tetra, two different conditions (conditions A and conditions B) were used, differing in adjustment of pipetting speed and cell splitting regime. The calculated IC50 values of the compounds may fluctuate depending on the daily cellular assay performance. Fluctuations of this kind are known to those skilled in the art.

human orexin-2 receptor = target: T2, human orexin-2 receptor (Homo sapiens, UniProt O43614); assay: Intracellular calcium measurement (FLIPR Tetra), orexin receptor antagonistic activity, OX2; type: cell-based; conditions: CHO cells expressing human orexin-2 receptor, 3 nM orexin-A, conditions B
T2 construct: expressed in transfected cells; host or cells: CHO (Chinese hamster ovary) cells, kept under G418 selection
T2 sequence (O43614 1-444): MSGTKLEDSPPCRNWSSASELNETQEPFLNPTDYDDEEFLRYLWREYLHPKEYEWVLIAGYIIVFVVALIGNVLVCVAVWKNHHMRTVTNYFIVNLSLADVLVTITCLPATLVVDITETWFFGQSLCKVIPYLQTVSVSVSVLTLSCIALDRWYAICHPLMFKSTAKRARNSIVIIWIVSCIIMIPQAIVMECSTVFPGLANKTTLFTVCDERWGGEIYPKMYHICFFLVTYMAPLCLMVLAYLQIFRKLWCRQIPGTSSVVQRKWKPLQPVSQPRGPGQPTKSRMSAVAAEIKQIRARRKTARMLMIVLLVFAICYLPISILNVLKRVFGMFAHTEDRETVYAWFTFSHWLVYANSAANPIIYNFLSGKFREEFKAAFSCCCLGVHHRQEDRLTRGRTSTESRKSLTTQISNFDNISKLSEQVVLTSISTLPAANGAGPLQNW
Method: as §1, §2, §3, §4, §5, §6

Compound: CCN(CCc1ccc(OC)c(OC)c1)C(=O)c1nc(N)sc1-c1cccc(C)c1 [Example 107, 2-Amino-5-m-tolyl-thiazole-4-carboxylic acid [2-(3,4-dimethoxy-phenyl)-ethyl]-ethyl-amide]
IC50 (human orexin-1 receptor): 41 nM
IC50 (human orexin-2 receptor): 2 nM

Compound: COc1ccc(CCN(CC(C)C)C(=O)c2nc(N)sc2-c2cccc(C)c2)cc1OC [Example 113, 2-Amino-5-m-tolyl-thiazole-4-carboxylic acid [2-(3,4-dimethoxy-phenyl)-ethyl]-isobutyl-amide]
IC50 (human orexin-1 receptor): 328 nM
IC50 (human orexin-2 receptor): 8 nM

Compound: COc1ccc(CCN(CC(F)(F)F)C(=O)c2nc(C)sc2-c2ccc(C)c(C)c2)cc1OC [Example 120, 5-(3,4-Dimethyl-phenyl)-2-methyl-thiazole-4-carboxylic acid [2-(3,4-dimethoxy-phenyl)-ethyl]-(2,2,2-trifluoro-ethyl)-amide]
IC50 (human orexin-1 receptor): 119 nM
IC50 (human orexin-2 receptor): 6 nM

Compound: COc1ccc(CCN(C(=O)c2nc(C)sc2-c2ccc(C)c(C)c2)C2CC2)cc1OC [Example 123, 5-(3,4-Dimethyl-phenyl)-2-methyl-thiazole-4-carboxylic acid cyclopropyl-[2-(3,4-dimethoxy-phenyl)-ethyl]-amide]
IC50 (human orexin-1 receptor): 26 nM
IC50 (human orexin-2 receptor): 4 nM

Compound: COc1ccc(CCN(CCO)C(=O)c2nc(C)sc2-c2ccc(C)c(C)c2)cc1OC [Example 126, 5-(3,4-Dimethyl-phenyl)-2-methyl-thiazole-4-carboxylic acid [2-(3,4-dimethoxy-phenyl)-ethyl]-(2-hydroxy-ethyl)-amide]
IC50 (human orexin-1 receptor): 170 nM
IC50 (human orexin-2 receptor): 4 nM

Compound: COCCN(CCc1ccc(OC)c(OC)c1)C(=O)c1nc(C)sc1-c1cccc(F)c1 [Example 127, 5-(3-Fluoro-phenyl)-2-methyl-thiazole-4-carboxylic acid [2-(3,4-dimethoxy-phenyl)-ethyl]-(2-methoxy-ethyl)-amide]
IC50 (human orexin-1 receptor): 1120 nM
IC50 (human orexin-2 receptor): 16 nM

Compound: COCCN(CCc1ccc(OC)c(OC)c1)C(=O)c1nc(N)sc1-c1cccc(C)c1 [Example 128, 2-Amino-5-m-tolyl-thiazole-4-carboxylic acid [2-(3,4-dimethoxy-phenyl)-ethyl]-(2-methoxy-ethyl)-amide]
IC50 (human orexin-1 receptor): 71 nM
IC50 (human orexin-2 receptor): 4 nM

Compound: COc1ccc(CCN(CCN(C)C)C(=O)c2nc(N)sc2-c2cccc(C)c2)cc1OC [Example 130, 2-Amino-5-m-tolyl-thiazole-4-carboxylic acid [2-(3,4-dimethoxy-phenyl)-ethyl]-(2-dimethylamino-ethyl)-amide]
IC50 (human orexin-1 receptor): > 10000 nM
IC50 (human orexin-2 receptor): 279 nM

Compound: COc1ccc(CCN(CC(N)=O)C(=O)c2nc(C)sc2-c2cccc(F)c2)cc1OC [Example 131, 5-(3-Fluoro-phenyl)-2-methyl-thiazole-4-carboxylic acid carbamoylmethyl-[2-(3,4-dimethoxy-phenyl)-ethyl]-amide]
IC50 (human orexin-1 receptor): > 10000 nM
IC50 (human orexin-2 receptor): 49 nM

Compound: COc1ccc(CCN(CC(=O)N(C)C)C(=O)c2nc(N)sc2-c2cccc(C)c2)cc1OC [Example 135, 2-Amino-5-m-tolyl-thiazole-4-carboxylic acid [2-(3,4-dimethoxy-phenyl)-ethyl]-dimethylcarbamoylmethyl-amide]
IC50 (human orexin-1 receptor): > 10000 nM
IC50 (human orexin-2 receptor): 145 nM

Compound: Cc1cccc(-c2sc(N)nc2C(=O)N(CCc2ccc3c(c2)OC(F)(F)O3)CC2CC2)c1 [Example 157, 2-Amino-5-m-tolyl-thiazole-4-carboxylic acid cyclopropylmethyl-[2-(2,2-difluoro-benzo[1,3]dioxol-5-yl)-ethyl]-amide]
IC50 (human orexin-1 receptor): 8510 nM
IC50 (human orexin-2 receptor): 745 nM

Compound: COc1ccc(CCN(CC2CC2)C(=O)c2nc(N)sc2-c2cccc(C)c2)cc1SC [Example 161, 2-Amino-5-m-tolyl-thiazole-4-carboxylic acid cyclopropylmethyl-[2-(4-methoxy-3-methylsulfanyl-phenyl)-ethyl]-amide]
IC50 (human orexin-1 receptor): 10 nM
IC50 (human orexin-2 receptor): 6 nM

Further compounds by falling IC50 (human orexin-1 receptor), results first:

IC50 (human orexin-1 receptor): 1470 nM
IC50 (human orexin-2 receptor): 82 nM
Compound: COc1ccc(CCN(CCO)C(=O)c2nc(C)sc2-c2cccc(F)c2)cc1OC [Example 124, 5-(3-Fluoro-phenyl)-2-methyl-thiazole-4-carboxylic acid [2-(3,4-dimethoxy-phenyl)-ethyl]-(2-hydroxy-ethyl)-amide]

IC50 (human orexin-1 receptor): 479 nM
IC50 (human orexin-2 receptor): 6 nM
Compound: CCCN(CCc1ccc(OC)c(OC)c1)C(=O)c1nc(C)sc1-c1cccc(F)c1 [Example 109, 5-(3-Fluoro-phenyl)-2-methyl-thiazole-4-carboxylic acid [2-(3,4-dimethoxy-phenyl)-ethyl]-propyl-amide]

IC50 (human orexin-1 receptor): 405 nM
IC50 (human orexin-2 receptor): 5 nM
Compound: COc1ccc(CCN(C)C(=O)c2nc(N)sc2-c2cccc(C)c2)cc1OC [Example 104, 2-Amino-5-m-tolyl-thiazole-4-carboxylic acid [2-(3,4-dimethoxy-phenyl)-ethyl]-methyl-amide]

IC50 (human orexin-1 receptor): 149 nM
IC50 (human orexin-2 receptor): 4 nM
Compound: COc1ccc(CCN(CC(F)(F)F)C(=O)c2nc(N)sc2-c2cccc(C)c2)cc1OC [Example 119, 2-Amino-5-m-tolyl-thiazole-4-carboxylic acid [2-(3,4-dimethoxy-phenyl)-ethyl]-(2,2,2-trifluoro-ethyl)-amide]

IC50 (human orexin-1 receptor): 81 nM
IC50 (human orexin-2 receptor): 18 nM
Compound: COc1ccc(CCN(CC2CC2)C(=O)c2nc(N)sc2-c2cccc(C)c2)cc1Br [Example 163, 2-Amino-5-m-tolyl-thiazole-4-carboxylic acid [2-(3-bromo-4-methoxy-phenyl)-ethyl]-cyclopropylmethyl-amide]

IC50 (human orexin-1 receptor): 40 nM
IC50 (human orexin-2 receptor): 5 nM
Compound: COCCN(CCc1ccc(OC)c(OC)c1)C(=O)c1nc(C)sc1-c1ccc(C)c(C)c1 [Example 129, 5-(3,4-Dimethyl-phenyl)-2-methyl-thiazole-4-carboxylic acid [2-(3,4-dimethoxy-phenyl)-ethyl]-(2-methoxy-ethyl)-amide]

IC50 (human orexin-1 receptor): 36 nM
IC50 (human orexin-2 receptor): 5 nM
Compound: CCN(CCc1ccc(OC)c(OC)c1)C(=O)c1nc(C)sc1-c1ccc(C)c(C)c1 [Example 108, 5-(3,4-Dimethyl-phenyl)-2-methyl-thiazole-4-carboxylic acid [2-(3,4-dimethoxy-phenyl)-ethyl]-ethyl-amide]

IC50 (human orexin-1 receptor): 21 nM
IC50 (human orexin-2 receptor): 2 nM
Compound: CCCN(CCc1ccc(OC)c(OC)c1)C(=O)c1nc(N)sc1-c1cccc(C)c1 [Example 110, 2-Amino-5-m-tolyl-thiazole-4-carboxylic acid [2-(3,4-dimethoxy-phenyl)-ethyl]-propyl-amide]

IC50 (human orexin-1 receptor): 18 nM
IC50 (human orexin-2 receptor): 2 nM
Compound: CCCN(CCc1ccc(OC)c(OC)c1)C(=O)c1nc(C)sc1-c1ccc(C)c(C)c1 [Example 111, 5-(3,4-Dimethyl-phenyl)-2-methyl-thiazole-4-carboxylic acid [2-(3,4-dimethoxy-phenyl)-ethyl]-propyl-amide]

IC50 (human orexin-1 receptor): 15 nM
IC50 (human orexin-2 receptor): 2 nM
Compound: COc1ccc(CCN(C(=O)c2nc(N)sc2-c2cccc(C)c2)C2CC2)cc1OC [Example 122, 2-Amino-5-m-tolyl-thiazole-4-carboxylic acid cyclopropyl-[2-(3,4-dimethoxy-phenyl)-ethyl]-amide]
